From ChEMBL document CHEMBL3259641, “Identification of tertiary sulfonamides as RORc inverse agonists” (Bioorg Med Chem Lett, 2014)

What follows are compounds tested against T1, Nuclear receptor ROR-alpha (Homo sapiens, UniProt P35398) (assay: Inverse agonist activity at human GAL4-fused RORa expressed in HEK293 cells after 5 hrs by luciferase reporter gene based transcriptional assay).
T1 sequence (P35398 whole entry): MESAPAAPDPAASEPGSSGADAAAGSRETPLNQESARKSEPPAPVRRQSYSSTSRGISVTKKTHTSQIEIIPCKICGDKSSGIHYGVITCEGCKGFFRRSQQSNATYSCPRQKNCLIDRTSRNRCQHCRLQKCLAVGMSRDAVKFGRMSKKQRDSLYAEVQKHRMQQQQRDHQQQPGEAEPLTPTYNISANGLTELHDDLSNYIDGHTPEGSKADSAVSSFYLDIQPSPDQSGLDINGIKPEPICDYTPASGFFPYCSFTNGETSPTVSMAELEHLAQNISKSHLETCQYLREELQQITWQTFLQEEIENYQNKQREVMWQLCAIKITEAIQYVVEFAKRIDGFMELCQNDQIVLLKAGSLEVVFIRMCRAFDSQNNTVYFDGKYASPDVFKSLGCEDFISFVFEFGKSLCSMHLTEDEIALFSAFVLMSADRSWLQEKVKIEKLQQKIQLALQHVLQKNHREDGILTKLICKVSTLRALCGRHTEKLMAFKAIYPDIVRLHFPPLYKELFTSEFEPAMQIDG
Type: cell-based

Question: How did the EC50 turn out when `CC(C)CN(Cc1ccc(-c2ccc(C(N)=O)cc2)cc1)S(=O)(=O)Cc1ccccc1` was run?
Answer: The EC50 was over 10 µM.

Question: For `CC(C)CN(Cc1ccc(-c2ccc(S(C)(=O)=O)cc2)s1)S(=O)(=O)Cc1ccccc1`, which EC50 is on record?
Answer: The EC50 was 2.8 µM.

Question: How did the EC50 turn out when `CC(C)CN(Cc1ccc(-c2ccc(NS(C)(=O)=O)cc2)cc1)S(=O)(=O)Cc1ccccc1` was run?
Answer: Its EC50 is 3.8 µM.

Question: With `CC(C)CN(Cc1ccc(-c2cccc(S(C)(=O)=O)c2)s1)S(=O)(=O)Cc1ccccc1` as the compound, how does the EC50 read?
Answer: Its EC50 is 4.2 µM.

These compounds were tested against T2, Oxysterols receptor LXR-alpha (Homo sapiens, UniProt Q13133) (assay: Inverse agonist activity at human GAL4-fused LXRalpha expressed in HEK293 cells assessed as inhibition of T0901317-induced transcriptional activity after 5 hrs by luciferase reporter gene assay).
T2 sequence (Q13133 whole entry): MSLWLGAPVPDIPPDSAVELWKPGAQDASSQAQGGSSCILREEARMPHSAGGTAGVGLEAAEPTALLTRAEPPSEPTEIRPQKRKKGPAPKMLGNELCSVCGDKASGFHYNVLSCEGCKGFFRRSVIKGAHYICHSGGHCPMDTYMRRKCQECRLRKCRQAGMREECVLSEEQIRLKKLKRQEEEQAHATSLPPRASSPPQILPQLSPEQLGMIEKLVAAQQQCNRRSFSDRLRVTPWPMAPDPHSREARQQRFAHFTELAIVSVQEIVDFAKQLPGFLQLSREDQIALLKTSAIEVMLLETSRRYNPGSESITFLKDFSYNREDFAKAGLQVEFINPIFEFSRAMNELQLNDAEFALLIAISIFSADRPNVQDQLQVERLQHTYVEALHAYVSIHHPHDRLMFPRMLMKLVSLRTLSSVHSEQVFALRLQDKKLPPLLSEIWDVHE
Type: cell-based

Question: With `CC(C)CN(Cc1ccc(-c2ccc(C(N)=O)cc2)cc1)S(=O)(=O)Cc1ccccc1` as the compound, how does the EC50 read?
Answer: Its EC50 is over 10 µM.

Question: Which EC50 does the source give for `CC(C)CN(Cc1ccc(-c2ccc(S(C)(=O)=O)cc2)s1)S(=O)(=O)Cc1ccccc1` here?
Answer: The EC50 was 3.7 µM.

Question: How did the EC50 turn out when `CC(C)CN(Cc1ccc(-c2ccc(NS(C)(=O)=O)cc2)cc1)S(=O)(=O)Cc1ccccc1` was run?
Answer: The EC50 was 3.6 µM.

What follows are compounds tested against T3, Nuclear receptor ROR-gamma (Homo sapiens, UniProt P51449) (assay: Displacement of [3H2]25-hydroxycholesterol from human RORc-LBD after 3 hrs by scintillation counting).
T3 sequence (P51449 whole entry): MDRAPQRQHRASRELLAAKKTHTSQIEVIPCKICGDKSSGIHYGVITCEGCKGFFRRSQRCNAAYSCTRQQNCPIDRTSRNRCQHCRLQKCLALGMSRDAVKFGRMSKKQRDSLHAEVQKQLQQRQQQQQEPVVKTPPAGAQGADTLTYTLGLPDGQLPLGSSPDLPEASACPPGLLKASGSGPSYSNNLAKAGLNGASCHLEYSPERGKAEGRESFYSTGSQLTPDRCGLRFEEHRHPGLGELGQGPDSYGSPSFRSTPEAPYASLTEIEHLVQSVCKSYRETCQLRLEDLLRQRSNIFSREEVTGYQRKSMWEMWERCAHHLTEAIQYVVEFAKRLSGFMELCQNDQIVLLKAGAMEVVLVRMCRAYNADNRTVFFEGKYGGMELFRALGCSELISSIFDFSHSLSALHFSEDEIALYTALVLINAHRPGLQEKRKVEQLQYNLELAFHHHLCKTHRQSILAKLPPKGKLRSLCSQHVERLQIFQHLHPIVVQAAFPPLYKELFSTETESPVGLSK

Question: For `CC(C)CN(Cc1ccc(-c2ccc(C#N)nc2)s1)S(=O)(=O)Cc1ccccc1`, which IC50 is on record?
Answer: Its IC50 is over 10 µM.

Question: `CC(C)CN(Cc1cccc(-c2ccc(S(C)(=O)=O)cc2)c1)S(=O)(=O)Cc1ccccc1` was tested. Which IC50 did it give?
Answer: Its IC50 is over 10 µM.

Question: For `CC(C)CN(Cc1cnc(-c2ccc(S(C)(=O)=O)cc2)s1)S(=O)(=O)Cc1ccccc1`, which IC50 is on record?
Answer: The IC50 was over 10 µM.

What follows are compounds tested against T4, Nuclear receptor ROR-beta (Homo sapiens, UniProt Q92753) (assay: Inverse agonist activity at human GAL4-fused RORb expressed in HEK293 cells after 5 hrs by luciferase reporter gene based transcriptional assay).
T4 sequence (Q92753 whole entry): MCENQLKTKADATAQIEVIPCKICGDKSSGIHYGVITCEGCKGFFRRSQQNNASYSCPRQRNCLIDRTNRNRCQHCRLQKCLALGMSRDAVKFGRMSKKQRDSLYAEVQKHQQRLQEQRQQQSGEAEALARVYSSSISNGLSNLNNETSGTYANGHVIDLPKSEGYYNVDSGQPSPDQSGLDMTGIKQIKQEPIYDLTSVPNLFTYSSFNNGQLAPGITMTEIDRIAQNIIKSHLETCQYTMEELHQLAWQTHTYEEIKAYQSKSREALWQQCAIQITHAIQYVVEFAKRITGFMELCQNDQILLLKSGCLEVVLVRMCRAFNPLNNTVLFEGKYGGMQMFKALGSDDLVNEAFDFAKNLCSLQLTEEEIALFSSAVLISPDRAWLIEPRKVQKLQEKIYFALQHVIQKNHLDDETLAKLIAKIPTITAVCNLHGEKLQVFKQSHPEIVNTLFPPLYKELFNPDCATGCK
Type: cell-based

Question: `CC(C)CN(Cc1ccc(-c2ccc(C(N)=O)cc2)cc1)S(=O)(=O)Cc1ccccc1` was tested. Which EC50 did it give?
Answer: Its EC50 is over 10 µM.

Question: For `CC(C)CN(Cc1ccc(-c2ccc(S(C)(=O)=O)cc2)s1)S(=O)(=O)Cc1ccccc1`, which EC50 is on record?
Answer: The EC50 was 2.2 µM.

Question: Which EC50 does the source give for `CC(C)CN(Cc1ccc(-c2ccc(NS(C)(=O)=O)cc2)cc1)S(=O)(=O)Cc1ccccc1` here?
Answer: The EC50 was 3.7 µM.

Question: `CC(C)CN(Cc1ccc(-c2cccc(S(C)(=O)=O)c2)s1)S(=O)(=O)Cc1ccccc1` was tested. Which EC50 did it give?
Answer: The EC50 was 5 µM.

These compounds were tested against T3, Nuclear receptor ROR-gamma (assay: Inverse agonist activity at an N-terminal 6xHis-GST-tag human RORc-LBD assessed as inhibition of recruitment of the SRC1 co-activator peptide after 3 hrs by time-resolved FRET assay).
Type: functional

Question: With `CC(C)CN(Cc1cccc(-c2ccc(S(C)(=O)=O)cc2)c1)S(=O)(=O)Cc1ccccc1` as the compound, how does the EC50 read?
Answer: The EC50 was over 10 µM.

Question: Which EC50 does the source give for `CC(C)CN(Cc1cnc(-c2ccc(S(C)(=O)=O)cc2)s1)S(=O)(=O)Cc1ccccc1` here?
Answer: The EC50 was over 10 µM.

The compounds below were run against T5, Oxysterols receptor LXR-beta (Homo sapiens, UniProt P55055) (assay: Inverse agonist activity at human GAL4-fused LXRbeta expressed in HEK293 cells assessed as inhibition of T0901317-induced transcriptional activity after 5 hrs by luciferase reporter gene assay).
T5 sequence (P55055 whole entry): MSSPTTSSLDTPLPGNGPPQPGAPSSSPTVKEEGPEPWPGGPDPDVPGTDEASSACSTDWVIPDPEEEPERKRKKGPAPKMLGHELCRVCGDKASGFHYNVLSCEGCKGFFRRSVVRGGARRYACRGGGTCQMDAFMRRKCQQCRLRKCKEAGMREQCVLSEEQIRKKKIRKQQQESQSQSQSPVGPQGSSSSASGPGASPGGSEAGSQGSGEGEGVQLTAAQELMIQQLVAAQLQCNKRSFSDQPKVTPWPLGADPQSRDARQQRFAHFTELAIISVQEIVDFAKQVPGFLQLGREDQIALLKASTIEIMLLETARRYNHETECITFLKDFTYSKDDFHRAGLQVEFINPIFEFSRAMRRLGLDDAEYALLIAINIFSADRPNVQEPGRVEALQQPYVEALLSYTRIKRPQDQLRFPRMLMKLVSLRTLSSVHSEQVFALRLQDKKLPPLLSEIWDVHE
Type: cell-based

Question: With `CC(C)CN(Cc1ccc(-c2ccc(C(N)=O)cc2)cc1)S(=O)(=O)Cc1ccccc1` as the compound, how does the EC50 read?
Answer: The EC50 was over 10 µM.

Question: `CC(C)CN(Cc1ccc(-c2ccc(S(C)(=O)=O)cc2)s1)S(=O)(=O)Cc1ccccc1` was tested. Which EC50 did it give?
Answer: The EC50 was 3.9 µM.

Question: For `CC(C)CN(Cc1ccc(-c2ccc(NS(C)(=O)=O)cc2)cc1)S(=O)(=O)Cc1ccccc1`, which EC50 is on record?
Answer: The EC50 was 3.8 µM.
